From BindingDB's records for doi:10.1021/jm00145a024 (1985) come the findings set out here.

The nature of the assay: Inhibitory binding constant in guinea pig brain homogenate was reported at Opioid receptor delta 1 at a temperature 25 degree Celsius labeled with [3H](D-Ala2-D-Leu5)-enkephalin (0.7 nM).

`O=C1c2ccc(O)c3c2C24CCN(CC5CC5)C1[C@]2(O)CCC(=O)[C@@H]4O3` (stereo partly specified) came in with a Ki of 281 nM.

What is called Ki is a measure of affinity in units of concentration, obtained from inhibition or displacement. A lower Ki goes with tighter binding.
